# Results taken from patent US11279676B2 (CHIA TAI TIANQING PHARMACEUTICAL GROUP CO., LTD., priority 2018, dated 2022).
# Read-outs that look alike come from different tables or passages of the source.
# Legend:
# [1] = Pharmacokinetic test in rats (relative bioavailability after gavage); type: in vivo; conditions: intragastric 20 mg/kg in gavage capsules; for Relative F: relative to crystalline form A (100)
# Protocol: The relative bioavailability of the compound of formula I in vivo was evaluated, after SD rats were gavaged with crystalline form A, crystalline form B, crystalline form D and crystalline form E of the compound of formula I.
# Test samples: crystalline form A, crystalline form B, crystalline form D and crystalline form E of the compound of formula I filled in No. 9 gavage capsules separately
# SD rats, weighing 180-200 g, after adaptation of 3-5 days, were randomly divided into 4 groups, with 4 rats in each group, and were respectively administered of crystalline form A, crystalline form B, crystalline form D and crystalline form E of the compound of formula I by intragastric administration at a dose of 20 mg/kg. The rats were fasted for 12 hours before administration and given food 4 hours after administration. Drinking water was free before and after the experiment and during the experiment.
# After administration, the collection time points were 0.167 h (10 min), 0.5 h, 1 h, 2 h, 4 h, 6 h, 8 h, 10 h, and 24 h. About 0.3 mL of blood was collected from the orbital venous plexus and placed in a centrifuge tube containing EDTA-K2. Stored at 4° C. Centrifuged at a condition of 4° C., 4000 rpm, 10 min within 1 h, and stored at −20° C. to be tested.
# Pipetted 50 μL of plasma sample to be tested, added 300 μL of acetonitrile solution containing internal standard, shook and mixed for 5 min, centrifuged at 13000 rpm for 10 min, took 30 μL of supernatant, added 150 μL of 50% acetonitrile aqueous solution, and pipetted 1 μL for LC/MS/MS analysis and determination.
# Making use of liquid chromatography-tandem mass spectrometry (LC-MS/MS), with diazepam as an internal standard (IS), protein precipitation method was used to extract the analyte and internal standard from the plasma, and reverse phase chromatography column was adopted to separate compounds and internal standard. The analyte was quantified by electrospray ionization (ESI) mode of a tandem quadrupole mass spectrometer.
# [2] = Hygroscopicity test (Chinese Pharmacopoeia 2015, General Chapter 9103); type: physicochemical; conditions: Guidelines for Drug Moisture Test, Chinese Pharmacopoeia 2015 Chapter 9103
# Protocol: Took the crystalline form A, crystalline form B, crystalline form D and crystalline form E of the compound of formula I to conduct test according to the “Guidelines for Drug Moisture Test” of the Chinese Pharmacopoeia 2015 Edition Fourth General Chapter 9103, and respectively, the weight gain of samples due to hygroscopicity was calculated.
# [3] = SD, rat, plasma, po, 20 mg/kg, mean of 4 rats
# [4] = SD rats, plasma, mean of 4 rats, listed as Crystalline Form B of the Compound of Formula I
# [5] = SD rats, plasma, mean of 4 rats, listed as Crystalline Form D of the Compound of Formula I
# [6] = SD rats, plasma, mean of 4 rats, listed as Crystalline Form E of the Compound of Formula I
structure (smiles),measurement,setting,value
COc1cc2c(Oc3ccc(NC(=O)C4(C(=O)Nc5ccc(F)cc5)CC4)cc3F)ccnc2cc1OCC1(NC2CCCC2)CC1 [Example 1],Relative F,"[1]; SD rats, listed as Crystalline Form A of the Compound of Formula I",100%
same,AUC(0-inf),[1]; [3],4960 ng·h/mL
same,AUC(0-t),[1]; [3],4700 ng·h/mL
same,half-life,[1]; [3],4.93 h
same,MRT last,"[1]; SD, rat, plasma, po, 20 mg/kg, plasma, mean of 4 rats, read-out: MRT(0-t)",8.51 h
same,Tmax,"[1]; SD, rat, plasma, po, 20 mg/kg, plasma, mean of 4 rats, read-out: Tmax",6 h
same,Weight Gain due to Hygroscopicity,[2],Less than 0.2%
COc1cc2c(Oc3ccc(NC(=O)C4(C(=O)Nc5ccc(F)cc5)CC4)cc3F)ccnc2cc1OCC1(NC2CCCC2)CC1 [Example 2],MRT(0-t),[1]; [4],6.72 h
same,Tmax,[1]; [4],4.00 h
same,t1/2,[1]; [4],5.30 h
same,Relative F,"[1]; SD rats, listed as Crystalline Form B of the Compound of Formula I",134%
COc1cc2c(Oc3ccc(NC(=O)C4(C(=O)Nc5ccc(F)cc5)CC4)cc3F)ccnc2cc1OCC1(NC2CCCC2)CC1 [Example 4],MRT(0-t),[1]; [5],8.73 h
same,Tmax,[1]; [5],6.00 h
same,t1/2,[1]; [5],5.20 h
same,Relative F,"[1]; SD rats, listed as Crystalline Form D of the Compound of Formula I",72%
COc1cc2c(Oc3ccc(NC(=O)C4(C(=O)Nc5ccc(F)cc5)CC4)cc3F)ccnc2cc1OCC1(NC2CCCC2)CC1 [Example 5],MRT(0-t),[1]; [6],7.30 h
same,Tmax,[1]; [6],4.50 h
same,t1/2,[1]; [6],4.61 h
same,Relative F,"[1]; SD rats, listed as Crystalline Form E of the Compound of Formula I",84%
